In patent US10882866B1, “Spiro[3H-indole-3,2′-pyrrolidin]-2(1H)-one compounds and derivatives as MDM2-P53 inhibitors” (Boehringer Ingelheim International GmbH, priority 2015, dated 2021):

Experiments:
[1] = target: GST-MDM2 protein (aa 23-117) / biotinylated p53 wt peptide (p53-MDM2 interaction) (Homo sapiens (Human), UniProt Q00987); assay: Mdm2-p53 Inhibition AlphaScreen; format: binding; conditions: 20 nM GST-MDM2 (aa 23-117), 20 nM biotinylated p53 wt peptide
Description: Mdm2-p53 Inhibition AlphaScreen
15 μL of compound in 20% DMSO (serial pre-dilutions of compound are done in 100% DMSO) is pipetted to the wells of a white OptiPlate-96 (PerkinElmer). A mix consisting of 20 nM GST-MDM2 protein (aa 23-117) and 20 nM biotinylated p53 wt peptide (encompassing aa 16-27 of wt human p53, amino acid sequence […]-Ttds-Lys-Biotin, molecular weight 2132.56 g/mol) is prepared in assay buffer (50 mM Tris/HCl pH 7.2; 120 mM NaCl; 0.1% bovine serum albumin (BSA); 5 mM dithiothreitol (DTT); 1 mM ethylenediaminetetraacetic acid (EDTA); 0.01% Tween 20). 30 μL of the mix is added to the compound dilutions and incubated for 15 min at rt while gently shaking the plate at 300 rounds per minute (rpm). Subsequently, 15 μL of premixed AlphaLISA Glutathione Acceptor Beads and AlphaScreen Streptavidin Donor Beads from PerkinElmer (in assay buffer at a concentration of 10 μg/mL each) are added and the samples are incubated for 30 min at rt in the dark (shaking 300 rpm). Afterwards, the signal is measured in a PerkinElmer Envision HTS Multilabel Reader using the AlphaScreen protocol from PerkinElmer.
Each plate contains negative controls where biotinylated p53-peptide and GST-MDM2 are left out and replaced by assay buffer. Negative control values are entered as low basis value when using the software GraphPad Prism for calculations. […]

[2] = tested on: human acute myeloid leukemia (AML) xenograft models harboring p53 wild-type; conditions: cited from earlier work
[3] = tested on: human prostate tumor xenograft models harboring p53 wild-type; conditions: cited from earlier work

GST-MDM2 protein (aa 23-117) / biotinylated p53 wt peptide (p53-MDM2 interaction), sequence (Q00987 23-117): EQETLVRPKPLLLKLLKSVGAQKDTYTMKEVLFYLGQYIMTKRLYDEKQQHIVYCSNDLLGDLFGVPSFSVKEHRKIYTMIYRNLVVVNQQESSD

## COc1cc2c(cc1C(N)=O)nc1n2CC[C@H]2[C@@H]1[C@H](c1cccc(Cl)c1F)[C@]1(C(=O)Nc3cc(Cl)ccc31)N2CC1CC1 [Ib-234]
[1]
  IC50: 2 nM

## CCOc1cc(C(C)(C)C)ccc1C1=N[C@@](C)(c2ccc(Cl)cc2)[C@@](C)(c2ccc(Cl)cc2)N1C(=O)N1CCN(CCCS(C)(=O)=O)CC1 [RG7112]
[2]
  antiproliferative and proapoptotic activity: antiproliferative and proapoptotic activity of RG7112 has been observed
[3]
  antiproliferative and proapoptotic activity: antiproliferative and proapoptotic activity of RG7112 has been observed
